Measurements: PubChem BioAssay (NCI)
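All cell lines were grown in 96-well plates and treated with compound for 48 hours. TGI: concentration producing complete growth inhibition.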

Experiments:
Test in all cases: NCI tumour cell line growth inhibition, 48 h
K-562 leukemia = tested on: K-562 leukemia
HT29 colon = tested on: HT29 colon
PC-3 prostate = tested on: PC-3 prostate
HOP-62 NSCLC = tested on: HOP-62 NSCLC
MDA-MB-435 = tested on: MDA-MB-435
SNB-19 CNS = tested on: SNB-19 CNS
EKVX NSCLC = tested on: EKVX NSCLC
SF-268 CNS = tested on: SF-268 CNS
NCI-H23 lung = tested on: NCI-H23 lung
UACC-257 melanoma = tested on: UACC-257 melanoma
OVCAR-5 ovarian = tested on: OVCAR-5 ovarian
HL-60(TB) leukemia = tested on: HL-60(TB) leukemia
MOLT-4 leukemia = tested on: MOLT-4 leukemia
SF-295 CNS = tested on: SF-295 CNS
BT-549 breast = tested on: BT-549 breast
U251 CNS = tested on: U251 CNS
TK-10 renal = tested on: TK-10 renal
MCF7 breast = tested on: MCF7 breast
CAKI-1 renal = tested on: CAKI-1 renal
NCI-H460 lung = tested on: NCI-H460 lung
MALME-3M melanoma = tested on: MALME-3M melanoma
786-0 renal = tested on: 786-0 renal
SK-OV-3 ovarian = tested on: SK-OV-3 ovarian
KM12 colon = tested on: KM12 colon
A549 NSCLC = tested on: A549 NSCLC
T-47D breast = tested on: T-47D breast
ACHN renal = tested on: ACHN renal
HCT-15 colon = tested on: HCT-15 colon
DU-145 prostate = tested on: DU-145 prostate
SK-MEL-5 melanoma = tested on: SK-MEL-5 melanoma
HOP-92 NSCLC = tested on: HOP-92 NSCLC
HCT-116 colon = tested on: HCT-116 colon
LOX IMVI melanoma = tested on: LOX IMVI melanoma
MDA-N = tested on: MDA-N
NCI/ADR-RES ovarian = tested on: NCI/ADR-RES ovarian
SF-539 CNS = tested on: SF-539 CNS
RPMI-8226 leukemia = tested on: RPMI-8226 leukemia
COLO 205 colon = tested on: COLO 205 colon
SW-620 colon = tested on: SW-620 colon
MDA-MB-231 breast = tested on: MDA-MB-231 breast
SR leukemia = tested on: SR leukemia
OVCAR-8 ovarian = tested on: OVCAR-8 ovarian
M14 melanoma = tested on: M14 melanoma
HS 578T breast = tested on: HS 578T breast
NCI-H522 lung = tested on: NCI-H522 lung
A498 renal = tested on: A498 renal
IGROV1 ovarian = tested on: IGROV1 ovarian
UACC-62 melanoma = tested on: UACC-62 melanoma
SN12C renal = tested on: SN12C renal
CCRF-CEM leukemia = tested on: CCRF-CEM leukemia
SK-MEL-28 melanoma = tested on: SK-MEL-28 melanoma
OVCAR-3 ovarian = tested on: OVCAR-3 ovarian
OVCAR-4 ovarian = tested on: OVCAR-4 ovarian
SNB-75 CNS = tested on: SNB-75 CNS
NCI-H226 lung = tested on: NCI-H226 lung
RXF 393 renal = tested on: RXF 393 renal
SK-MEL-2 melanoma = tested on: SK-MEL-2 melanoma
UO-31 renal = tested on: UO-31 renal

Q: How did the TGI (K-562 leukemia) turn out when `COc1ccc(CCn2ccc(=O)c(O)c2C)cc1OC` was run?
A: > 100 µM

Q: What about the TGI (HT29 colon) of the same molecule?
A: 77.4 µM

Q: What about the TGI (PC-3 prostate) of the same molecule?
A: > 100 µM

Q: And the TGI (HOP-62 NSCLC)?
A: > 100 µM

Q: What about the TGI (MDA-MB-435) of the same molecule?
A: > 100 µM

Q: What about the TGI (SNB-19 CNS) of the same molecule?
A: > 100 µM

Q: What about the TGI (EKVX NSCLC) of the same molecule?
A: > 100 µM

Q: What about the TGI (SF-268 CNS) of the same molecule?
A: 9.92 µM

Q: And the TGI (NCI-H23 lung)?
A: > 100 µM

Q: What about the TGI (UACC-257 melanoma) of the same molecule?
A: 31 µM

Q: And the TGI (OVCAR-5 ovarian)?
A: > 100 µM

Q: And the TGI (HL-60(TB) leukemia)?
A: 81.9 µM

Q: What about the TGI (MOLT-4 leukemia) of the same molecule?
A: > 100 µM

Q: And the TGI (SF-295 CNS)?
A: > 100 µM

Q: What about the TGI (BT-549 breast) of the same molecule?
A: > 100 µM

Q: What about the TGI (U251 CNS) of the same molecule?
A: > 100 µM

Q: What about the TGI (TK-10 renal) of the same molecule?
A: > 100 µM

Q: And the TGI (MCF7 breast)?
A: 61.5 µM

Q: What about the TGI (CAKI-1 renal) of the same molecule?
A: 12 µM

Q: And the TGI (NCI-H460 lung)?
A: 31.2 µM

Q: What about the TGI (MALME-3M melanoma) of the same molecule?
A: 91 µM

Q: What about the TGI (786-0 renal) of the same molecule?
A: 22.3 µM

Q: And the TGI (SK-OV-3 ovarian)?
A: > 100 µM

Q: What about the TGI (KM12 colon) of the same molecule?
A: > 100 µM

Q: And the TGI (A549 NSCLC)?
A: > 100 µM

Q: And the TGI (T-47D breast)?
A: 85.7 µM

Q: What about the TGI (ACHN renal) of the same molecule?
A: > 100 µM

Q: And the TGI (HCT-15 colon)?
A: > 100 µM

Q: What about the TGI (DU-145 prostate) of the same molecule?
A: 43 µM

Q: What about the TGI (SK-MEL-5 melanoma) of the same molecule?
A: 41.8 µM

Q: And the TGI (HOP-92 NSCLC)?
A: 80.5 µM

Q: And the TGI (HCT-116 colon)?
A: > 100 µM

Q: And the TGI (LOX IMVI melanoma)?
A: 78.9 µM

Q: What about the TGI (MDA-N) of the same molecule?
A: > 100 µM

Q: What about the TGI (NCI/ADR-RES ovarian) of the same molecule?
A: 57.9 µM

Q: What about the TGI (SF-539 CNS) of the same molecule?
A: 73.9 µM

Q: What about the TGI (RPMI-8226 leukemia) of the same molecule?
A: 96.9 µM

Q: What about the TGI (COLO 205 colon) of the same molecule?
A: > 100 µM

Q: And the TGI (SW-620 colon)?
A: > 100 µM

Q: And the TGI (MDA-MB-231 breast)?
A: 6.2 µM

Q: And the TGI (SR leukemia)?
A: > 100 µM

Q: What about the TGI (OVCAR-8 ovarian) of the same molecule?
A: > 100 µM

Q: What about the TGI (M14 melanoma) of the same molecule?
A: 36.7 µM

Q: What about the TGI (HS 578T breast) of the same molecule?
A: 0.0907 µM

Q: Which results are given for `O=c1n(CCCN2CCOCC2)nc2n1-c1ccc3ccccc3c1SC2`?
A: TGI (K-562 leukemia): > 100 µM; TGI (HT29 colon): 41.2 µM; TGI (NCI-H522 lung): 52.3 µM; TGI (PC-3 prostate): > 100 µM; TGI (HOP-62 NSCLC): > 100 µM; TGI (MDA-MB-435): > 100 µM; TGI (SNB-19 CNS): > 100 µM; TGI (EKVX NSCLC): > 100 µM; TGI (A498 renal): > 100 µM; TGI (UACC-257 melanoma): > 100 µM; TGI (OVCAR-5 ovarian): > 100 µM; TGI (HL-60(TB) leukemia): 97.8 µM; TGI (IGROV1 ovarian): > 100 µM; TGI (MOLT-4 leukemia): > 100 µM; TGI (SF-295 CNS): 42.1 µM; TGI (BT-549 breast): > 100 µM; TGI (U251 CNS): > 100 µM; TGI (TK-10 renal): > 100 µM; TGI (MCF7 breast): > 100 µM; TGI (CAKI-1 renal): > 100 µM; TGI (UACC-62 melanoma): 47.2 µM; TGI (NCI-H460 lung): 81.1 µM; TGI (786-0 renal): 38.3 µM; TGI (SK-OV-3 ovarian): > 100 µM; TGI (KM12 colon): > 100 µM; TGI (A549 NSCLC): > 100 µM; TGI (SN12C renal): > 100 µM; TGI (T-47D breast): > 100 µM; TGI (CCRF-CEM leukemia): > 100 µM; TGI (HCT-15 colon): 67.2 µM; TGI (DU-145 prostate): > 100 µM; TGI (SK-MEL-5 melanoma): 47.7 µM; TGI (SK-MEL-28 melanoma): > 100 µM; TGI (OVCAR-3 ovarian): > 100 µM; TGI (HOP-92 NSCLC): > 100 µM; TGI (OVCAR-4 ovarian): > 100 µM; TGI (HCT-116 colon): > 100 µM; TGI (LOX IMVI melanoma): 53 µM; TGI (MDA-N): 24.1 µM; TGI (NCI/ADR-RES ovarian): > 100 µM; TGI (SF-539 CNS): > 100 µM; TGI (SNB-75 CNS): > 100 µM; TGI (RPMI-8226 leukemia): 80.8 µM; TGI (COLO 205 colon): 7.49 µM; TGI (SW-620 colon): > 100 µM; TGI (NCI-H226 lung): > 100 µM; TGI (SR leukemia): > 100 µM; TGI (OVCAR-8 ovarian): > 100 µM; TGI (RXF 393 renal): > 100 µM; TGI (SK-MEL-2 melanoma): > 100 µM; TGI (UO-31 renal): 45.7 µM; TGI (HS 578T breast): > 100 µM
